Laboratory results published in US9113629B2, “4-amino-6-(4-substituted-phenyl)-picolinates and 6-amino-2-(4-substituted-phenyl)-pyrimidine-4-carboxylates and their use as herbicides” (DOW AGROSCIENCES LLC, priority 2013, dated 2015).
Where two headings read alike, the source gives them in different places.

Assays:
[1] = tested on: Key Broadleaf Weed and Crop Species; assay: Post-emergent Test II herbicidal activity (Table 5); assay type: in vivo; settings: post-emergence, 336 h, post-emergent, 14 days after application; for pest or weed control at 70 g/ha: 70 g ai/ha; for pest or weed control at 140 g/ha: 140 g ai/ha
Procedure, shortened: (§1)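 Greenhouse-grown plants at first or second true leaf stage were sprayed post-emergence with compound in acetone/DMSO-based aqueous spray containing crop oil concentrate and surfactant, at 187 L/ha, highest rate plus ½× to 1/16× dilutions. After 14 d, injury was scored visually versus untreated plants, 0 (none) to 100% (complete kill).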

[2] = tested on: Key Grass and Sedge Weeds as well as Grass Crops; assay: Post-emergent Test II herbicidal activity (Table 6); assay type: in vivo; settings: post-emergence, 336 h; for pest or weed control at 70 g/ha: application rate 70 g ai/ha; for pest or weed control at 140 g/ha: application rate 140 g ai/ha
Procedure, shortened: as §1

[3] = ABUTH: velvetleaf (Abutilon theophrasti), read-out: Visual Growth Reduction (%) 14 Days After Application ABUTH
[4] = BRSNN: oilseed-rape, canola (Brassica napus), read-out: Visual Growth Reduction (%) 14 Days After Application BRSNN
[5] = CHEAL: lambsquarters (Chenopodium album), read-out: Visual Growth Reduction (%) 14 Days After Application CHEAL
[6] = EPHHL: wild poinsettia (Euphorbia heterophylla), read-out: Visual Growth Reduction (%) 14 Days After Application EPHHL
[7] = HELAN: sunflower (Helianthus annuus), read-out: Visual Growth Reduction (%) 14 Days After Application HELAN
[8] = VIOTR: wild pansy (Viola tricolor), read-out: Visual Growth Reduction (%) 14 Days After Application VIOTR
[9] = Triticum aestivum, TRZSS (wheat), read-out: Visual Growth Reduction (%) 14 Days After Application, TRZSS
[10] = CYPES: yellow nutsedge (Cyperus esculentus), read-out: Visual Growth Reduction (%) 14 Days After Application, CYPES
[11] = DIGSA: crabgrass (Digitaria sanguinalis), read-out: Visual Growth Reduction (%) 14 Days After Application, DIGSA
[12] = ECHCG: barnyardgrass (Echinochloa crus-galli), read-out: Visual Growth Reduction (%) 14 Days After Application, ECHCG
[13] = ORYSA: rice (Oryza sativa), read-out: Visual Growth Reduction (%) 14 Days After Application, ORYSA
[14] = SETFA: giant foxtail (Setaria faberi), read-out: Visual Growth Reduction (%) 14 Days After Application, SETFA
[15] = SORVU: grain sorghum (Sorghum vulgare), read-out: Visual Growth Reduction (%) 14 Days After Application, SORVU
[16] = ZEAMX: maize, corn (Zea mays), read-out: Visual Growth Reduction (%) 14 Days After Application, ZEAMX
[17] = AMARE: redroot pigweed (Amaranthus retroflexus), read-out: Visual Growth Reduction (%) 14 Days After Application AMARE

SMILES	pest or weed control at 70 g/ha [1, 3] [%]	pest or weed control at 140 g/ha [1, 3] [%]	pest or weed control at 70 g/ha [1, 4] [%]	pest or weed control at 140 g/ha [1, 4] [%]	pest or weed control at 70 g/ha [1, 5] [%]	pest or weed control at 140 g/ha [1, 5] [%]	pest or weed control at 70 g/ha [1, 6] [%]	pest or weed control at 140 g/ha [1, 6] [%]	pest or weed control at 70 g/ha [1, 7] [%]	pest or weed control at 140 g/ha [1, 7] [%]	pest or weed control at 70 g/ha [1, 8] [%]	pest or weed control at 70 g/ha [2, 9] [%]	pest or weed control at 140 g/ha [2, 9] [%]	pest or weed control at 70 g/ha [2, 10] [%]	pest or weed control at 140 g/ha [2, 10] [%]	pest or weed control at 70 g/ha [2, 11] [%]	pest or weed control at 140 g/ha [2, 11] [%]	pest or weed control at 70 g/ha [2, 12] [%]	pest or weed control at 140 g/ha [2, 12] [%]	pest or weed control at 70 g/ha [2, 13] [%]	other results
C=Cc1c(C(=O)O)nc(-c2ccc(C(F)(F)F)c(F)c2)c(F)c1N [Compound 86]	95 to 100	95 to 100	75 to 84	95 to 100	95 to 100	95 to 100	95 to 100	95 to 100	95 to 100	95 to 100	95 to 100	0 to 29	0 to 29	95 to 100	95 to 100	0 to 29	0 to 29	75 to 84	85 to 94	30 to 44	pest or weed control at 140 g/ha [1, 8]: 95 to 100%; pest or weed control at 140 g/ha [2, 13]: 45 to 59%; pest or weed control at 70 g/ha [2, 14]: 0 to 29%; pest or weed control at 140 g/ha [2, 14]: 0 to 29%; pest or weed control at 70 g/ha [2, 15]: 75 to 84%; pest or weed control at 70 g/ha [2, 16]: 60 to 74%; pest or weed control at 140 g/ha [2, 16]: 60 to 74%
COC(=O)c1nc(-c2ccc(Br)cc2F)cc(N)c1Cl [Compound 93]	95 to 100	95 to 100	0 to 29	60 to 74	85 to 94	95 to 100	95 to 100	95 to 100	85 to 94	85 to 94	30 to 44	45 to 59	45 to 59	95 to 100	95 to 100	75 to 84	95 to 100	85 to 94	85 to 94	0 to 29	pest or weed control at 70 g/ha [1, 17]: 95 to 100%; pest or weed control at 140 g/ha [1, 17]: 95 to 100%; pest or weed control at 140 g/ha [2, 13]: 0 to 29%; pest or weed control at 70 g/ha [2, 14]: 75 to 84%; pest or weed control at 140 g/ha [2, 14]: 75 to 84%; pest or weed control at 70 g/ha [2, 15]: 85 to 94%; pest or weed control at 140 g/ha [2, 15]: 95 to 100%; pest or weed control at 70 g/ha [2, 16]: 60 to 74%; pest or weed control at 140 g/ha [2, 16]: 75 to 84%
Cc1c(-c2ccc(OC(F)F)cc2)nc(C(=O)O)c(Cl)c1N [Compound 94, 4-Amino-3-chloro-6-(4-(difluoromethoxy)phenyl)-5-methylpicolinic acid]	0 to 29	0 to 29	0 to 29	0 to 29	85 to 94	85 to 94	0 to 29	0 to 29	85 to 94	85 to 94	0 to 29	0 to 29	0 to 29	0 to 29	0 to 29	0 to 29	0 to 29	0 to 29	0 to 29	0 to 29	pest or weed control at 70 g/ha [1, 17]: 0 to 29%; pest or weed control at 140 g/ha [1, 17]: 45 to 59%; pest or weed control at 140 g/ha [1, 8]: 0 to 29%; pest or weed control at 140 g/ha [2, 13]: 0 to 29%; pest or weed control at 70 g/ha [2, 14]: 0 to 29%; pest or weed control at 140 g/ha [2, 14]: 0 to 29%; pest or weed control at 70 g/ha [2, 15]: 0 to 29%; pest or weed control at 140 g/ha [2, 15]: 0 to 29%; pest or weed control at 70 g/ha [2, 16]: 0 to 29%; pest or weed control at 140 g/ha [2, 16]: 0 to 29%
